# According to patent US20200071310A1, “N-ARYL PYRAZOLES AS NRF2 REGULATORS” (GLAXOSMITHKLINE INTELLECTUAL PROPERTY DEVELOPMENT LIMITED, priority 2016, published 2020):
# Target: T1, Keap1 (321-609) Kelch domain / TAMRA-labeled NRF2 peptide (ETGE motif) (Homo sapiens, UniProt Q14145)
# T1 construct: the Kelch domain (321-609) of Keap1 is used
# Test: NRF2-Keap1 FP Assay
# Format: binding
# Conditions: Keap1 (321-609) 20 nM, Tamra labeled peptide 8 nM
# Text: One model for the NRF2-Keap1 interaction is through two binding sites in the Neh2 domain on NRF2. The two sites are referred to as the DLG binding motif (latch domain, uM affinity) and the ETGE binding motif (hinge domain, nM affinity). The Keap1 protein consists of an N-terminal region (NTR), a broad complex, tramtrack, and brick a' brac domain (BTB), an intervening region (IVR), a double glycine repeat domain (DGR or Kelch), and a C-terminal region. The DLG and ETGE motifs of NRF2's Neh2 domain bind to the Kelch domain of Keap1 at different affinities. In the Keap1 Kelch fluorescence polarization (FP) assay, a TAMRA-labeled 16mer peptide (AFFAQLQLDEETGEFL) containing the ETGE motif of NRF2 and the Kelch domain (321-609) of Keap1 is used. The assay determines if a compound interferes with the binding between Keap1 […] and the TAMRA-labeled peptide. Binding of TAMRA-labeled NRF2 peptide to Keap1 (321-609) results in a high FP signal. If a compound interferes with the binding between the peptide and the protein, it will cause the assay signal to decrease. Thus, assay signal is inversely proportional to binding inhibition.
# 100 nl of 100× compound dose response curves (serial 3-fold dilutions) in DMSO were stamped using an Echo liquid handling system (Labcyte) into 384-well low volume black assay plates (Greiner, #784076), with DMSO in columns 6 and 18. The top concentration of compound was located in columns 1 and 13. Keap1 (321-609) was diluted to 40 nM (2×) in 1× assay buffer (50 mM Tris, pH 8.0, 100 mM NaCl, 5 mM MgCl2, 1 mM DTT, 2 mM CHAPS, and 0.005% BSA) and 5 ul was added using a Multidrop Combi (Thermo Electron Corporation) equipped with a metal tip dispenser to all wells of the compound plate, except column 18. Column 18 received only 5 ul of assay buffer. Immediately, 5 uL of 16 nM (2×) of Tamra labeled peptide (AFFAQLQLDEETGEFL, 21st Century Biochemicals) was added to all wells of the plate. The plates were spun at 500 rpm for 1 min, incubated for 1 hr at room temperature, and read on an Analyst GT (Molecular Devices) equipped with excitation (530/25 nm) and emission (580/10 nm) filters designed for Tamra probes. A 561 nm dichroic mirror was also used in the Analyst. The final assay concentrations of Keap1l (321-609) and Tamra labeled peptide were 20 nM and 8 nM, respectively. Fluorescence measurements, represented as mP, were used in the transformation of the data. Compound activity was calculated based on percent inhibition, normalized against controls in the assay (Control 1 contains the Tamra peptide and Keap1 (321-609) together (0% response) and control 2 contains the Tamra peptide alone (100% response)). Data analysis was handled using the software package Abase XE (Surrey, United Kingdom. The % inhibition values were calculated by the equation:
# 100−(100*((compound response−average control 2)/(average control 1−average control2))).
# For calculation of pIC50s, Abase XE used a four parameter equation.
# IC50s<1 nM (+++++), IC50s 1 nM-10 nM (++++), IC50s 10-100 nM (+++), IC50s 100 nM-1 μM (++), IC50s 1-10 μM (+), IC50s>10 μM (−), or were not determined (ND).
# T1 sequence (Q14145 321-609): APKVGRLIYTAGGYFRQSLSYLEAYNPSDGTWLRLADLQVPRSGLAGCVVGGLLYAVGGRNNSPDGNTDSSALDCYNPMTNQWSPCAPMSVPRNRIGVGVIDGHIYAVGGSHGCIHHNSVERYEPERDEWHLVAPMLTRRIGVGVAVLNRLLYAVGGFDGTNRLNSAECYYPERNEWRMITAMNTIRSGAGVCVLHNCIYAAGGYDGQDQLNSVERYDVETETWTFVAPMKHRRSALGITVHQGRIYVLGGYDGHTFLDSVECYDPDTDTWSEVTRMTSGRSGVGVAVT
row,Compound,EC50 [nM]
1,"CCCCCCN(Cc1cccc(-n2ncc(C(=O)O)c2[C@@H]2C[C@H]2c2cn(C)nn2)c1)S(=O)(=O)c1ccccc1Oc1ccccc1 (racemic) [Example 49, 1-(3-((N-hexyl-2-phenoxyphenylsulfonamido)methyl)phenyl)-5-((trans)-2-(1-methyl-1H-1,2,3-triazol-4-yl)cyclopropyl)-1H-pyrazole-4-carboxylic acid]",100 to 1000
2,"CN(Cc1cccc(-n2ncc(C(=O)O)c2[C@@H]2C[C@H]2c2cn(C)nn2)c1)S(=O)(=O)c1ccccc1 (racemic) [Example 48, 5-((trans)-2-(1-methyl-1H-1,2,3-triazol-4-yl)cyclopropyl)-1-(3-((N-methylphenylsulfonamido)methyl)phenyl)-1H-pyrazole-4-carboxylic acid]",100 to 1000
3,"CCCCCCN(Cc1cccc(-n2ncc(C(=O)O)c2[C@@H]2C[C@H]2c2cn(C)nn2)c1)S(=O)(=O)c1cccc(-c2ccccc2)c1 (racemic) [Example 34, 1-(3-((N-hexyl-[1,1′-biphenyl]-3-ylsulfonamido)methyl)phenyl)-5-((trans)-2-(1-methyl-1H-1,2,3-triazol-4-yl)cyclopropyl)-1H-pyrazole-4-carboxylic acid]",1 to 10
4,CC[C@@H]1Cc2ccccc2CN(Cc2cccc(-n3ncc(C(=O)O)c3[C@@H]3C[C@H]3c3cn(C)nn3)c2)C1 [Example 10],10 to 100
5,Cn1cc([C@@H]2C[C@H]2c2c(C(=O)O)cnn2-c2cccc(CN3Cc4cc(Br)ccc4OC(C)(C)C3)c2)nn1 (racemic) [Example 13],1 to 10
6,CC[C@H]1Cc2ccccc2CN(Cc2cccc(-n3ncc(C(=O)O)c3[C@@H]3C[C@H]3c3cn(C)nn3)c2)C1 [Example 11],10 to 100
7,"C[C@H]1Cc2ccccc2S(=O)(=O)N(Cc2cccc(-n3ncc(C(=O)O)c3[C@@H]3C[C@H]3c3cnn(C)c3)c2)C1 [Example 32, 1-(3-(((S)-4-methyl-1,1-dioxido-4,5-dihydrobenzo[f][1,2]thiazepin-2(3H)-yl)methyl)-phenyl)-5-(trans-2-(1-methyl-1H-pyrazol-4-yl)cyclopropyl)-1H-pyrazole-4-carboxylic acid]",100 to 1000
8,CC[C@@H]1CN(Cc2cccc(-n3ncc(C(=O)O)c3[C@@H]3C[C@H]3c3cn(C)nn3)c2)S(=O)(=O)c2ccccc2O1 [Example 3],1 to 10
9,"COc1ccc(Br)cc1S(=O)(=O)N(C)Cc1cccc(-n2ncc(C(=O)O)c2[C@@H]2C[C@H]2c2cn(C)nn2)c1 (racemic) [Example 43, 1-(3-((5-bromo-2-methoxy-N-methylphenylsulfonamido)methyl)phenyl)-5-((trans)-2-(1-methyl-1H-1,2,3-triazol-4-yl)cyclopropyl)-1H-pyrazole-4-carboxylic acid]",100 to 1000
10,CC[C@@H]1CN(Cc2cc(-n3ncc(C(=O)O)c3[C@@H]3C[C@H]3c3cn(C)nn3)ccc2C)Cc2ccccc2O1 [Example 28],100 to 1000
11,"Cc1cc([C@@H]2C[C@H]2c2c(C(=O)O)cnn2-c2cccc(CN3C[C@@H](C)Cc4cc(C(F)(F)F)ccc4S3(=O)=O)c2)on1 (racemic) [Example 57, 1-(3-(((S)-4-Methyl-1,1-dioxido-7-(trifluoromethyl)-4,5-dihydrobenzo[f][1,2]thiazepin-2(3H)-yl)methyl)phenyl)-5-(trans-2-(3-methylisoxazol-5-yl)cyclopropyl)-1H-pyrazole-4-carboxylic acid]",100 to 1000
12,"CC(c1cccc(-n2ncc(C(=O)O)c2[C@@H]2C[C@H]2c2cn(C)nn2)c1)N1C[C@@H](C)Cc2ccc(C(F)(F)F)cc2S1(=O)=O (single isomer, unassigned) [Example 6, 1-(3-((R or S)-1-((S)-4-Methyl-1,1-dioxido-8-(trifluoromethyl)-4,5-dihydrobenzo[f][1,2]thiazepin-2(3H)-yl)ethyl)phenyl)-5-((1R,2R)-2-(1-methyl-1H-1,2,3-triazol-4-yl)cyclopropyl)-1H-pyrazole-4-carboxylic acid]",1 to 10
13,"C[C@@H]1Cc2cc(C(F)(F)F)ccc2S(=O)(=O)N(Cc2cccc(-n3ncc(C(=O)O)c3[C@@H]3C[C@H]3c3cnn(C)c3)c2)C1 [Example 33, 1-(3-(((R)-4-methyl-1,1-dioxido-7-(trifluoromethyl)-4,5-dihydro-benzo[f][1,2]thiazepin-2(3H)-yl)methyl)phenyl)-5-(trans-2-(1-methyl-1H-pyrazol-4-yl)cyclopropyl)-1H-pyrazole-4-carboxylic acid]",1000 to 10000
14,"CN(Cc1cccc(-n2ncc(C(=O)O)c2[C@@H]2C[C@H]2c2cn(C)nn2)c1)S(=O)(=O)c1ccc(-c2ccccc2)cc1 (relative stereo) [Example 39, 5-((trans)-2-(1-methyl-1H-1,2,3-triazol-4-yl)cyclo-propyl)-1-(3-((N-methyl-[1,1′-biphenyl]-4-ylsulfonamido)-methyl)phenyl)-1H-pyrazole-4-carboxylic acid]",10 to 100
15,"CCCN(Cc1cccc(-n2ncc(C(=O)O)c2[C@@H]2C[C@H]2c2cn(C)nn2)c1)S(=O)(=O)c1ccccc1C (racemic) [Example 50, 5-((trans)-2-(1-methyl-1H-1,2,3-triazol-4-yl)cyclopropyl)-1-(3-((2-methyl-N-propylphenylsulfonamido)methyl)phenyl)-1H-pyrazole-4-carboxylic acid]",100 to 1000
16,"CCCCCCN(Cc1cccc(-n2ncc(C(=O)O)c2[C@@H]2C[C@H]2c2cn(C)nn2)c1)S(=O)(=O)c1ccc(Oc2ccccc2)cc1 (relative stereo) [Example 36, 1-(3-((N-hexyl-4-phenoxyphenylsulfonamido)methyl)phenyl)-5-((trans)-2-(1-methyl-1H-1,2,3-triazol-4-yl)-cyclopropyl)-1H-pyrazole-4-carboxylic acid]",10 to 100
17,"COc1ccccc1S(=O)(=O)NCc1cccc(-n2ncc(C(=O)O)c2[C@@H]2C[C@H]2c2cn(C)nn2)c1 (racemic) [Example 52, 1-(3-((2-methoxyphenylsulfonamido)methyl)phenyl)-5-((trans)-2-(1-methyl-1H-1,2,3-triazol-4-yl)cyclopropyl)-1H-pyrazole-4-carboxylic acid]",100 to 1000
18,"C[C@H]1Cc2ccccc2S(=O)(=O)N(Cc2cccc(-n3ncc(C(=O)O)c3[C@@H]3C[C@H]3c3cn(C)nn3)c2)C1 [Example 15, 1-(3-(((S)-4-methyl-1,1-dioxido-4,5-dihydrobenzo[f][1,2]thiazepin-2(3H)-yl)methyl)phenyl)-5-((trans)-2-(1-methyl-1H-1,2,3-triazol-4-yl)cyclopropyl)-1H-pyrazole-4-carboxylic acid]",10 to 100
19,"C[C@H]1Cc2cc(C(F)(F)F)ccc2S(=O)(=O)N(Cc2cccc(-n3ncc(C(=O)O)c3[C@@H]3C[C@H]3c3cnn(C)c3)c2)C1 [Example 30, 1-(3-(((S)-4-Methyl-1,1-dioxido-7-(trifluoromethyl)-4,5-dihydrobenzo[f][1,2]thiazepin-2(3H)-yl)methyl)phenyl)-5-(trans-2-(1-methyl-1H-pyrazol-4-yl)cyclopropyl)-1H-pyrazole-4-carboxylic acid]",10 to 100
20,"CC[C@H]1Cc2ccc(Br)cc2S(=O)(=O)N(Cc2cccc(-n3ncc(C(=O)O)c3[C@@H]3C[C@H]3c3cn(C)nn3)c2)C1 [Example 22, 1-(3-(((S)-8-bromo-4-ethyl-1,1-dioxido-4,5-dihydrobenzo[f][1,2]thiazepin-2(3H)-yl)methyl)phenyl)-5-((1R,2R)-2-(1-methyl-1H-1,2,3-triazol-4-yl)cyclopropyl)-1H-pyrazole-4-carboxylic acid]",< 1
